The values below come from patent publication US20050187264A1, “Phosphodiesterase iv inhibitor containing pyridylacrylamide derivative” (priority 2002, published 2005).

The subject of one data set is Phosphodiesterase IV. The experiment in a line: Inhibitory action on phosphodiesterase IV ([3H]cAMP hydrolysis, liquid scintillation). The format is biochemical. The note with it: test substance 10 μM; enzyme isolated from U-937 cell; cAMP 1 μM substrate; 30 min at 30° C.; duplicate. As to the method:
Phosphodiesterase IV was isolated using U-937 cell as origin (Torphy, T. J. et al., J. Pharmacol. Exp. Ther., 263, 1195-1205 (1992)). Using [^3 H]cAMP and cAMP (1 μM) as substrate/tracer, incubation was performed for 30 min at 30° C. [^3H]5′-AMP was measured by liquid scintillation. Inhibitory activity is represented by the rate of inhibition of a test substance with respect to a control group that is without the test substance, and is calculated by the following formula: Inhibitory activity (%)=100×(control group value−value of group with test substance addition/control group value.
All tests were implemented in duplicate.

Each structure is given as a SMILES string.

The term melting point denotes the temperature, or range, at which the solid turns liquid.

The compound `COC(=O)CN(CCc1ccc(OC)c(OC)c1)C(=O)/C=C/c1cccnc1.Cl` gave a melting point of 168 to 170 °C. In turn, `COc1ccc(CCN(C)C(=O)/C(C#N)=C/c2cccnc2)cc1OC` [Compound 2] yielded a melting point of 115 to 120 °C. In addition, the “Phosphodiesterase IV inhibitory activity (10 μM)” value with Phosphodiesterase IV amounted to 72%. Consider `COCCOCOc1c(OC)cc(CCN(C)C(=O)/C=C/c2cccnc2)cc1OC` [Compound 36], for which the melting point fell in the range of 152 to 155 °C. Consider `COc1ccc(CCN(C)C(=O)/C=C/c2cccnc2)cc1OC` [Compound 84, (E)-N-(3,4-dimethoxyphenethyl)-N-methyl-3-(3-pyridyl)-2-propenamide], for which, in the data set with Phosphodiesterase IV, the “Phosphodiesterase IV inhibitory activity (10 μM)” value is listed as 49%. Turning to `CCOC(=O)COc1ccc(CNC(=O)/C=C/c2cccnc2)cc1OC` [Compound 105], the melting point fell in the range of 105 to 107 °C.

As for `COc1ccc(CCN(C)C(=S)/C=C/c2cccnc2)cc1OC.Cl` [Compound 135, (E)-N-(3,4-dimethoxyphenethyl)-N-methyl-3-(3-pyridyl)-2-propenethioamide Hydrochloride], the “Phosphodiesterase IV inhibitory activity (10 μM)” value with Phosphodiesterase IV is 53%.

For `COc1ccc(CCNC(=S)/C=C/c2cccnc2)cc1OC.Cl` [Compound 136], the melting point was in the range of 182 to 187 °C. The “Phosphodiesterase IV inhibitory activity (10 μM)” value in the data set on Phosphodiesterase IV worked out at 45%. `COc1ccc(CCN(C)C(=O)/C=C/c2cccnc2)cc1OC.Cl` [Compound 140]: the “Phosphodiesterase IV inhibitory activity (10 μM)” value in the data set with Phosphodiesterase IV was determined as 54%. Still for that read-out and setting: the figure for `COc1ccc(CCN(C)C(=O)/C=C/c2cccnc2)cc1OC` [Compound 143] is 50%; for `COc1ccc(CCN(C)C(=O)/C=C/c2cccnc2)cc1OC` [Compound 144] it is 47%. Regarding `COc1ccc(CCN(C)C(=O)/C=C/c2cccnc2)cc1OC` [Compound 146], the “Phosphodiesterase IV inhibitory activity (10 μM)” value with Phosphodiesterase IV worked out at 43%. On to `COc1ccc(CCN(C)C(=O)/C=C/c2ccccn2)cc1OC.Cl` [Compound 153], for which the “Phosphodiesterase IV inhibitory activity (10 μM)” value in the data set on Phosphodiesterase IV amounted to 59%. For `COc1ccc(C(=O)CN(C)C(=O)/C=C/c2cccnc2)cc1OC` [Compound 155, (E)-N-[2-(3,4-dimethoxyphenyl)-2-oxoethyl]-N-methyl-3-(3-pyridyl)-2-propenamide], in the data set on Phosphodiesterase IV, the “Phosphodiesterase IV inhibitory activity (10 μM)” value is 69%.
